Common to all, as to type: functional
One assay deals with NCI-H23. Kind of assay: Growth inhibition of human NCI-H23 cells assessed as cell growth at 5X10'-6 M after 48 hrs by sulforhodamine B assay. As to conditions: NCI-H23, 48 h, read-out: Activity. In general terms: Sulforhodamine B stains cellular protein and so reports cell mass.
Assay [1] relates to OVCAR-5. Put plainly: Growth inhibition of human OVCAR5 cells assessed as cell growth at 3X10'-7 M after 48 hrs by sulforhodamine B assay. To be noted: OVCAR-5, 48 h, read-out: Activity.
Another assay has as its system UACC-257. Kind of assay: Growth inhibition of human UACC257 cells assessed as cell growth at 3X10'-7 M after 48 hrs by sulforhodamine B assay. To be noted: UACC-257, 48 h, read-out: Activity.
The subject of assay [2] is MDA-MB-435. Put plainly: Growth inhibition of human MDA-MB-435 cells assessed as cell growth at 3X10'-7 M after 48 hrs by sulforhodamine B assay. To be noted: MDA-MB-435, 48 h, read-out: Activity.
The test system of assay [3] is LOX IMVI. Put plainly: Growth inhibition of human LOXIMVI cells assessed as cell growth at 3X10'-7 M after 48 hrs by sulforhodamine B assay. To be noted: read-out: Activity.
Assay [4] relates to U-251. Put plainly: Growth inhibition of human U251 cells assessed as cell growth at 3X10'-7 M after 48 hrs by sulforhodamine B assay. As to conditions: U-251, 48 h, read-out: Activity.
The next assay relates to SF-268. Put plainly: Growth inhibition of human SF268 cells assessed as cell growth at 3X10'-7 M after 48 hrs by sulforhodamine B assay. To be noted: SF-268, 48 h, read-out: Activity.
In a further assay the test system is NCI-H226. Put plainly: Growth inhibition of human NCI-H226 cells assessed as cell growth at 3X10'-7 M after 48 hrs by sulforhodamine B assay. As to conditions: NCI-H226, 48 h, read-out: Activity.
Another assay relates to A549. Kind of assay: Growth inhibition of human A549/ATCC cells assessed as cell growth at 3X10'-7 M after 48 hrs by sulforhodamine B assay. As to conditions: A549, 48 h, read-out: Activity.
Assay [5] relates to MDA-MB-468. Kind of assay: Growth inhibition of human MDA-MB-468 cells assessed as cell growth at 3X10'-8 M after 48 hrs by sulforhodamine B assay. As to conditions: MDA-MB-468, 48 h, read-out: Activity.
Assay [6] can be described thus: Growth inhibition of human Hs 578T cells assessed as cell growth at 3X10'-8 M after 48 hrs by sulforhodamine B assay. To be noted: read-out: Activity.
A further assay has as its system ACHN. Put plainly: Growth inhibition of human ACHN cells assessed as cell growth at 3X10'-8 M after 48 hrs by sulforhodamine B assay. To be noted: read-out: Activity.
The subject of assay [7] is A498. Kind of assay: Growth inhibition of human A498 cells assessed as cell growth at 3X10'-8 M after 48 hrs by sulforhodamine B assay. To be noted: A498, 48 h, read-out: Activity.
Another assay relates to MDA-MB-231. Put plainly: Growth inhibition of human MDA-MB-231 cells assessed as cell growth at 3X10'-5 M after 48 hrs by sulforhodamine B assay. As to conditions: MDA-MB-231, 48 h, read-out: Activity.
In the next assay the test system is DU-145. Put plainly: Growth inhibition of human DU145 cells assessed as cell growth at 3X10'-5 M after 48 hrs by sulforhodamine B assay. To be noted: DU-145, 48 h, read-out: Activity.
Assay [8] relates to OVCAR-5. Kind of assay: Growth inhibition of human OVCAR5 cells assessed as cell growth at 3X10'-8 M after 48 hrs by sulforhodamine B assay. To be noted: OVCAR-5, 48 h, read-out: Activity.
The subject of assay [9] is U-251. Kind of assay: Growth inhibition of human U251 cells assessed as cell growth at 3X10'-8 M after 48 hrs by sulforhodamine B assay. As to conditions: U-251, 48 h, read-out: Activity.
A further assay has as its system HCT-116. Kind of assay: Growth inhibition of human HCT116 cells assessed as cell growth at 3X10'-8 M after 48 hrs by sulforhodamine B assay. As to conditions: HCT-116, 48 h, read-out: Activity.
The subject of the next assay is NCI-H522. Put plainly: Growth inhibition of human NCI-H522 cells assessed as cell growth at 3X10'-8 M after 48 hrs by sulforhodamine B assay. As to conditions: NCI-H522, 48 h, read-out: Activity.
In another assay the test system is UO-31. Put plainly: Growth inhibition of human UO31 cells assessed as cell growth at 3X10'-9 M after 48 hrs by sulforhodamine B assay. As to conditions: UO-31, 48 h, read-out: Activity.
Assay [10] relates to A498. Kind of assay: Growth inhibition of human A498 cells assessed as cell growth at 3X10'-9 M after 48 hrs by sulforhodamine B assay. To be noted: A498, 48 h, read-out: Activity.
In a further assay the test system is OVCAR-4. Put plainly: Growth inhibition of human OVCAR4 cells assessed as cell growth at 3X10'-9 M after 48 hrs by sulforhodamine B assay. To be noted: OVCAR-4, 48 h, read-out: Activity.
In assay [11] the test system is MDA-MB-435. Kind of assay: Growth inhibition of human MDA-MB-435 cells assessed as cell growth at 3X10'-5 M after 48 hrs by sulforhodamine B assay. To be noted: MDA-MB-435, 48 h, read-out: Activity.
Assay [12] deals with U-251. Put plainly: Growth inhibition of human U251 cells assessed as cell growth at 3X10'-5 M after 48 hrs by sulforhodamine B assay. To be noted: U-251, 48 h, read-out: Activity.
Another assay relates to MOLT-4. Kind of assay: Growth inhibition of human MOLT4 cells assessed as cell growth at 3X10'-5 M after 48 hrs by sulforhodamine B assay. As to conditions: MOLT-4, 48 h, read-out: Activity.
The next assay has as its system UACC-62. Kind of assay: Growth inhibition of human UACC62 cells assessed as cell growth at 3X10'-9 M after 48 hrs by sulforhodamine B assay. As to conditions: UACC-62, 48 h, read-out: Activity.
For assay [13], the system named is SK-MEL-5. Kind of assay: Growth inhibition of human SK-MEL-5 cells assessed as cell growth at 3X10'-9 M after 48 hrs by sulforhodamine B assay. To be noted: SK-MEL-5, 48 h, read-out: Activity.
Another assay has as its system SW-620. Put plainly: Growth inhibition of human SW620 cells assessed as cell growth at 3X10'-9 M after 48 hrs by sulforhodamine B assay. As to conditions: SW-620, 48 h, read-out: Activity.
Another assay has as its system HT-29. Put plainly: Growth inhibition of human HT-29 cells assessed as cell growth at 3X10'-9 M after 48 hrs by sulforhodamine B assay. To be noted: HT-29, 48 h, read-out: Activity.
The nature of assay [14]: Growth inhibition of human HCC2998 cells assessed as cell growth at 3X10'-9 M after 48 hrs by sulforhodamine B assay. As to conditions: HCC 2998, 48 h, read-out: Activity.
The subject of the next assay is HOP-62. Kind of assay: Growth inhibition of human HOP62 cells assessed as cell growth at 3X10'-9 M after 48 hrs by sulforhodamine B assay. As to conditions: HOP-62, 48 h, read-out: Activity.
A further assay has as its system OVCAR-8. Put plainly: Growth inhibition of human OVCAR8 cells assessed as cell growth at 3X10'-6 M after 48 hrs by sulforhodamine B assay. To be noted: OVCAR-8, 48 h, read-out: Activity.
Assay [15] concerns SK-MEL-5. Kind of assay: Growth inhibition of human SK-MEL-5 cells assessed as cell growth at 3X10'-6 M after 48 hrs by sulforhodamine B assay. To be noted: SK-MEL-5, 48 h, read-out: Activity.
Assay [16] relates to LOX IMVI. Kind of assay: Growth inhibition of human LOXIMVI cells assessed as cell growth at 3X10'-6 M after 48 hrs by sulforhodamine B assay. As to conditions: read-out: Activity.
The subject of assay [17] is MDA-MB-468. Put plainly: Growth inhibition of human MDA-MB-468 cells assessed as cell growth at 3X10'-7 M after 48 hrs by sulforhodamine B assay. As to conditions: MDA-MB-468, 48 h, read-out: Activity.
A further assay deals with MCF7. Put plainly: Growth inhibition of human MCF7 cells assessed as cell growth at 3X10'-7 M after 48 hrs by sulforhodamine B assay. As to conditions: MCF7, 48 h, read-out: Activity.

Each structure is given as a SMILES string.

On to `COc1cc(-c2nn(-c3cccc(NC(=O)Nc4cc(C(F)(F)F)cc(C(F)(F)F)c4)c3)cc2-c2ccncc2)ccc1Cl`, for which the growth at 5 µM with NCI-H23 was -18%.
Regarding `O=C(Nc1cccc(-n2cc(-c3ccncc3)c(-c3ccc(Cl)c(O)c3)n2)c1)Nc1cc(C(F)(F)F)cc(C(F)(F)F)c1`, the growth at 5 µM in the assay with NCI-H23 is -18%.
`COc1cc(-c2nn(-c3cccc(NC(=O)c4cccc(C(F)(F)F)c4)c3)cc2-c2ccncc2)ccc1Cl`: the growth at 5 µM with NCI-H23 amounted to 13%.
With `COc1cc(-c2nn(-c3cccc(NC(=O)Nc4cccc(C(F)(F)F)c4)c3)cc2-c2ccncc2)ccc1Cl`, the growth at 5 µM in the assay on NCI-H23 was -18%.
Take `O=C(Nc1cccc(-n2cc(-c3ccncc3)c(-c3ccc(Cl)c(O)c3)n2)c1)Nc1cccc(C(F)(F)F)c1`: the growth at 0.3 µM with OVCAR-5 [1] came out at 105%; with UACC-257, 92%; with MDA-MB-435 [2] it was 96%; with LOX IMVI [3] it was 97%; in the assay on U-251 [4], 97%; in the assay with SF-268, 96%. Further, the growth at 0.3 µM with NCI-H226 is 98%; with A549, 93%; in the assay with MDA-MB-468 [17] it was 81%; with MCF7, 89%. Further, the growth at 0.03 µM stood at 89% with MDA-MB-468 [5]; 91% in assay [6]; 101% in the assay on ACHN; 83% with A498 [7]; 100% in the assay with OVCAR-5 [8]; 100% in the assay with U-251 [9]. For the same molecule, the results for the growth at 0.03 µM in the assay on HCT-116 and in the assay with NCI-H522 were 97% and 90%, respectively. Besides, the growth at 30 µM in the assay with MDA-MB-231 was -5%; in the assay with DU-145, 9%; with MDA-MB-435 [11] it was -19%; in the assay with U-251 [12], -48%; in the assay on MOLT-4 it was 8%. The growth at 0.003 µM in the assay with UO-31 is 89%; with A498 [10], 92%; in the assay on OVCAR-4 it was 101%; in the assay on UACC-62, 98%; in the assay with SK-MEL-5 [13], 103%; in the assay on SW-620, 98%. For the same molecule, the growth at 0.003 µM was determined as 99% in the assay on HT-29, 97% in assay [14] and 97% in the assay on HOP-62. For the same molecule, the growth at 3 µM turned out to be 31% with OVCAR-8, 17% in the assay on SK-MEL-5 [15] and 44% in the assay on LOX IMVI [16].
As to `O=C(Nc1cccc(-n2cc(-c3ccncc3)c(-c3ccc(Cl)c(O)c3)n2)c1)c1ccc(N2CCOCC2)c(C(F)(F)F)c1`, the growth at 5 µM in the assay on NCI-H23 was 46%.

Values taken from ChEMBL document CHEMBL2440076, “New triarylpyrazoles as broad-spectrum anticancer agents: design, synthesis, and biological evaluation” (Eur J Med Chem, 2013).
